Structures are written as SMILES.

The subject of this assay is human ovarian carcinoma (A2780). The assay can be described thus: Efficacy of PEG-leu-doxorubicin analogs against subcutaneous human ovarian carcinoma (A2780) xenograft in nude mice. The class given is in vivo. As to conditions: intravenous Qd7 × 3, 30 mg/kg/dose. The procedure: The efficacy of PEG-leu-doxorubicin analogs against a subcutaneous human ovarian carcinoma (A2780) injected into nude mice was determined as follows.
Following at least one week of acclimation, tumors were established in nude mice by injecting 1×10^6 […] harvested A2780 ovarian carcinoma cells in a single subcutaneous site, on the left axillary flank region of each animal. The tumor injection site was observed twice weekly and measured once palpable. The tumor volume for each mouse was determined by measuring two dimensions with calipers and calculated using the formula: tumor volume=(length×width^2)/2). When tumors reached the average volume of approximately 80 mm^3, the mice were divided into their respective experimental groups, which consists of vehicle (20 m M sodium phosphate in 0.6% NaCl) controls, Leu-Doxorubicin, compound 1 of Example 1, compound 10 of Example 4, and compound 12 of Example 5). The mice were sorted to evenly distribute tumor size, grouped into 6 mice/cage, and ear punched for permanent identification. Drugs were dosed intravenously via the tail vein once per week for three weeks (Qd7×3). Mouse weight and tumor sizes were measured at the beginning of study and twice weekly through week 5.
The overall growth of tumors was calculated as the mean tumor volume at one week following the end of the treatment. A percent treatment over control (T/C) value was also calculated when the control group's median tumor size reached approximately 800-1100 mm^3 and again at one week following treatment. The T/C value in percent is a non-quantitative indication of anti-tumor effectiveness.
(Xenograft models place foreign cells or tissue in a host animal.)

On to `COc1cccc2c1C(=O)c1c(O)c3c(c(O)c1C2=O)C[C@@](O)(C(=O)CO)C[C@@H]3O[C@H]1C[C@H](NC(=O)[C@@H](N)CC(C)C)[C@H](O)[C@H](C)O1` [Leu-Dox, Leucine-doxorubicin], for which the “Tumor Volume (mean ± sem) Day 21” value (A2780 xenograft in nude mice, established tumors ~80 mm^3, n = 6/group, day 21) was 659 ± 173 mm^3. Moreover, the “T/C (%) At Day 21” value (median tumor volume treatment vs control one week after final dosage (day 21)) was 19.7%. In addition, for the setting “median tumor volume treatment vs control when control median reached approximately 1000 mm^3”, the “T/C (%) At 1000 mm^3” value was found to be 26.3%.

For the origin of these results see patent US6720306B2, “Tetrapartate prodrugs” (priority 1997, dated 2004).
